Patent US9844566B2, “Pharmaceutical composition for the preparation of infusion solutions of antimicrobial preparations, its production process (variations)” (priority 2011, dated 2017)

What was measured:
Format in all cases: in vivo
[1] = test system: Escherichia coli (ATCC No25922 F-50); assay: Experimental sepsis model in mice, E. coli: survival on the seventh day; settings: for Mice survival rate on the 7th day of infection, E. coli: mice infected i.v. 8×10^8 CFU/mouse, i.v. treatment daily for 3 days; for Mice survival on the 7th day, absolute values (survival rate/infected animals), E. coli: survivors/infected mice
Experimental: (§1) Determination of therapeutic efficiency of antimicrobial agents was done on experimental models of sepsis and methods for statistical treatment of the obtained results (χ^2) according to [R19 and R20].
(§2) Microgerms. Staphylococcus aureus (ATCC No 25923 F-49), Escherichia coli (ATCC No25922 F-50), Pseudomonas aeruginosa (ATCC No 27853 F-51), Candida albicans (ATCC No 24433).
(§3) Animals. The experiments were carried out on hybrid mice (CBA×C57Black/6)CBF1 according to the “Regulations for test animals use” (USSR Ministry of health, order supplement No 755 from Dec. 8, 1977).
(§4) Experimental sepsis models. Tested mice were injected intravenously 0.8 ml of P. aeruginosa daily culture suspension with a dosage 5×10^8 CFU/mouse or S. aureus daily culture suspension with a dosage 10^10 CFU/mouse or E. coli daily culture suspension with a dosage 8×10^8 CFU/mouse or Candida albicans daily culture suspension with a dosage 10^10 CFU/mouse. Mice of a control group were injected the 0.9% solution of NaCl or 5% dextrose solution in the volume of 0.8 ml.
(§5) In a day after being infected, during 3 days, the tested mice were daily intravenously injected with the indicated above antimicrobial preparations, dissolved in 0.9% solution of NaCl or in 5% dextrose solution, as well as their solutions prepared based on the pharmaceutical composition (as described hereinabove).
(§6) All beta-lactams were injected daily in the amount of 0.2 mg/mouse, amikacin sulfate in the amount of 2 mg/mouse daily, vancomycin in the amount of 1 mg/mouse daily, fosfomycin in the amount of 2 mg/mouse daily, and voriconazole in the amount of 0.1 mg/mouse contained in 0.5 ml of solution. Following the same order, the control group was injected with 0.9% NaCl solution or 5% dextrose solution, as well as water solutions of the pharmaceutical composition in the volume of 0.5 ml.
(§7) The antibacterial therapy efficiency was evaluated based on the number of surviving mice on the seventh day after being infected [R19, R20].
(§8) The obtained data shown in Tables 3 and 4 reflect the results of three independent experiments (at least 30 test animals were used for research of each inventive pharmaceutical preparation).

[2] = test system: Staphylococcus aureus (ATCC No 25923 F-49); assay: Experimental sepsis model in mice, S. aureus: survival on the seventh day; settings: for Mice survival rate on the 7th day of infection, S. aureus: mice infected i.v. 10^10 CFU/mouse, i.v. treatment daily for 3 days; for Mice survival on the 7th day, absolute values (survival rate/infected animals), S. aureus: survivors/infected mice
Experimental: as §1, §2, §3, §4, §5, §6, §7, §8

[3] = test system: Pseudomonas aeruginosa (ATCC No 27853 F-51); assay: Experimental sepsis model in mice, P. aeruginosa: survival on the seventh day; settings: for Mice survival rate on the 7th day of infection, P. aeruginosa: mice infected i.v. 5×10^8 CFU/mouse, i.v. treatment daily for 3 days; for Mice survival on the 7th day, absolute values (survival rate/infected animals), P. aeruginosa: survivors/infected mice
Experimental: as §1, §2, §3, §4, §5, §6, §7, §8

[4] = test system: Candida albicans (ATCC No 24433); assay: Experimental mycotic sepsis model in mice, Candida albicans: survival on the seventh day; settings: for Mice survival rate on the 7th day of infection, Candida albicans: mice infected i.v. 10^10 CFU/mouse, i.v. treatment daily for 3 days; for Mice survival on the 7th day, absolute values (survival rate/infected animals), Candida albicans: survivors/infected mice
Experimental: as §1, §2, §3, §4, §5, §6, §7, §8

[5] = Table 3 (0.9% NaCl or NaCl:Colloidal silica)
[6] = Table 4 (5% dextrose or Dextrose:Colloidal silica)

Row | Molecule | Mice survival rate on the 7th day of infection, E. coli [1, 5] [%] | Mice survival on the 7th day, absolute values (survival rate/infected animals), E. coli [1, 5] | Mice survival rate on the 7th day of infection, E. coli [1, 6] [%] | Mice survival on the 7th day, absolute values (survival rate/infected animals), E. coli [1, 6] | Mice survival rate on the 7th day of infection, S. aureus [2, 5] [%] | Mice survival on the 7th day, absolute values (survival rate/infected animals), S. aureus [2, 5] | Mice survival rate on the 7th day of infection, S. aureus [2, 6] [%] | Mice survival on the 7th day, absolute values (survival rate/infected animals), S. aureus [2, 6] | Mice survival rate on the 7th day of infection, P. aeruginosa [3, 5] [%] | Mice survival on the 7th day, absolute values (survival rate/infected animals), P. aeruginosa [3, 5] | Mice survival rate on the 7th day of infection, P. aeruginosa [3, 6] [%] | Mice survival on the 7th day, absolute values (survival rate/infected animals), P. aeruginosa [3, 6] | Mice survival rate on the 7th day of infection, Candida albicans [4, 5] [%] | Mice survival on the 7th day, absolute values (survival rate/infected animals), Candida albicans [4, 5] | Mice survival rate on the 7th day of infection, Candida albicans [4, 6] [%] | Mice survival on the 7th day, absolute values (survival rate/infected animals), Candida albicans [4, 6]
1 | NCC[C@H](O)C(=O)N[C@@H]1C[C@H](N)[C@@H](O[C@H]2O[C@H](CN)[C@@H](O)[C@H](O)[C@H]2O)[C@H](O)[C@H]1O[C@H]1O[C@H](CO)[C@@H](O)[C@H](N)[C@H]1O.O=S(=O)(O)O.O=S(=O)(O)O [Amikacin sulfate/0.9% NaCl solution, amikacin sulfate] | 48.3 | (15/31) | 46.7 | (14/30) | – | – | – | – | – | – | – | – | – | – | – | –
2 | CC[C@H]1OC(=O)[C@H](C)[C@@H](O[C@H]2C[C@@](C)(OC)[C@@H](O)[C@H](C)O2)[C@H](C)[C@@H](O[C@@H]2O[C@H](C)C[C@H](N(C)C)[C@H]2O)[C@](C)(O)C[C@@H](C)CN(C)[C@H](C)[C@@H](O)[C@]1(C)O [Azithromycin/0.9% NaCl solution, azithromycin] | – | – | – | – | 43.3 | (13/30) | 43.3 | (13/30) | – | – | – | – | – | – | – | –
3 | CO/N=C(\C(=O)N[C@@H]1C(=O)N2C(C(=O)[O-])=C(C[N+]3(C)CCCC3)CS[C@H]12)c1csc(N)n1 [Cefepime/0.9% NaCl solution, cefepime] | 58.1 | (18/31) | 54.4 | (17/31) | 46.7 | (14/30) | 56.7 | (17/30) | 51.6 | (16/31) | 50.0 | (15/30) | – | – | – | –
4 | CO/N=C(\C(=O)N[C@@H]1C(=O)N2C(C(=O)O)=C(COC(C)=O)CS[C@H]12)c1csc(N)n1 [Cefotaxime/0.9% NaCl solution, cefotaxime] | 37.5 | (12/32) | 43.7 | (14/32) | 43.7 | (14/32) | 42.8 | (15/35) | – | – | – | – | – | – | – | –
5 | CC(C)(O/N=C(\C(=O)N[C@@H]1C(=O)N2C(C(=O)[O-])=C(C[n+]3ccccc3)CS[C@H]12)c1csc(N)n1)C(=O)O [Ceftazidime/0.9% NaCl solution, ceftazidime] | 48.4 | (15/31) | 53.3 | (16/30) | 38.7 | (12/31) | 40.0 | (12/30) | 46.7 | (14/30) | 46.8 | (15/32) | – | – | – | –
6 | C[C@@H]1O[C@@H]1P(=O)(O)O [Fosfomycin/0.9% NaCl solution, fosfomycin] | 43.3 | (13/30) | 46.7 | (14/30) | 36.7 | (11/30) | 43.7 | (14/32) | 30.0 | (9/30) | 35.2 | (15/34) | – | – | – | –
7 | C[C@@H](O)[C@H]1C(=O)N2C(C(=O)O)=C(S[C@@H]3CN[C@H](C(=O)N(C)C)C3)[C@H](C)[C@H]12 [Meropenem/0.9% NaCl solution, meropenem] | 73.8 | (31/42) | 78.0 | (32/41) | 70.9 | (22/31) | 73.8 | (31/42) | 71.8 | (23/32) | 74.4 | (32/43) | – | – | – | –
8 | CN[C@H](CC(C)C)C(=O)N[C@H]1C(=O)N[C@@H](CC(N)=O)C(=O)N[C@H]2C(=O)N[C@H]3C(=O)N[C@H](C(=O)N[C@H](C(=O)O)c4cc(O)cc(O)c4-c4cc3ccc4O)[C@H](O)c3ccc(c(Cl)c3)Oc3cc2cc(c3O[C@@H]2O[C@H](CO)[C@@H](O)[C@H](O)[C@H]2O[C@H]2C[C@](C)(N)[C@H](O)[C@H](C)O2)Oc2ccc(cc2Cl)[C@H]1O [Vancomycin/0.9% NaCl solution, vancomycin] | – | – | – | – | 71.4 | (30/42) | 77.5 | (31/40) | – | – | – | – | – | – | – | –
9 | aztreonam [Aztreonam/0.9% NaCl solution] | 70.0 | (21/30) | – | – | – | – | – | – | 67.7 | (21/31) | – | – | – | – | – | –
10 | ceftriaxone [Ceftriaxone/5% dextrose solution] | – | – | 45.2 | (14/31) | – | – | 40.6 | (13/32) | – | – | – | – | – | – | – | –
11 | voriconazole [Voriconazole/0.9% NaCl solution] | – | – | – | – | – | – | – | – | – | – | – | – | 45.1 | (14/31) | 46.7 | (14/30)
